These results are taken from paper PMC3906526 (Archives of Pharmacal Research, 2013).

Each structure is given as a SMILES string. pIC50: −log10 of the molar value.

What is called pIC50 is the negative decadic logarithm of the IC50, by convention in mol/L. Low values mean a large IC50, high ones a small IC50.

The assay has as its target c-Kit (Homo sapiens, UniProt P10721). The assay is described as follows: AlphaBead. The format is biochemical.

c-Kit, sequence (P10721 544-976): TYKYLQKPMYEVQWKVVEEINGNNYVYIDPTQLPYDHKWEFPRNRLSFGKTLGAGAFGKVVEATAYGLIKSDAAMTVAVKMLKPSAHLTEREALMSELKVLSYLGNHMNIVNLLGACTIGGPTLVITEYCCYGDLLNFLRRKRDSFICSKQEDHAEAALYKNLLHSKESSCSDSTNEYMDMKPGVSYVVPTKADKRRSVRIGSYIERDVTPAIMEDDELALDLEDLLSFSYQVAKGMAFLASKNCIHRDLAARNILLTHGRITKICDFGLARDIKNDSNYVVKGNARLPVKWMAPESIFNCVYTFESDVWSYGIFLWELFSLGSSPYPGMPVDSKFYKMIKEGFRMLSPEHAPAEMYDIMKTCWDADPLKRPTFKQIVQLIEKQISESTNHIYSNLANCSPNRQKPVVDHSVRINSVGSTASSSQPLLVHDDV

Regarding `COc1ccc(-c2cc(=O)c3c(O)cc(O)cc3o2)cc1` [Y1, acacetin], the pIC50 is 4.88. Next, `O=c1cc(-c2ccc(O)cc2)oc2cc(O)cc(O)c12` [Y3, apigenin]: 5.33; `O=c1cc(-c2ccc(O)c(O)c2)oc2cc(O)cc(O)c12` [Y4, luteolin]: 6.00.
